In patent US10464902B1, “Multi-tyrosine kinase inhibitors derivatives and methods of use” (Ontogenesis, LLC, priority 2015, dated 2019):
Read-outs that look alike come from different tables or passages of the source.

Key:
VEGFR2 [1] = target: T1, VEGFR2 (Homo sapiens (Human), UniProt P35968); conditions: human umbilical vein endothelial cells; cited from earlier work
Target sequence in this assay (P35968 20-1356): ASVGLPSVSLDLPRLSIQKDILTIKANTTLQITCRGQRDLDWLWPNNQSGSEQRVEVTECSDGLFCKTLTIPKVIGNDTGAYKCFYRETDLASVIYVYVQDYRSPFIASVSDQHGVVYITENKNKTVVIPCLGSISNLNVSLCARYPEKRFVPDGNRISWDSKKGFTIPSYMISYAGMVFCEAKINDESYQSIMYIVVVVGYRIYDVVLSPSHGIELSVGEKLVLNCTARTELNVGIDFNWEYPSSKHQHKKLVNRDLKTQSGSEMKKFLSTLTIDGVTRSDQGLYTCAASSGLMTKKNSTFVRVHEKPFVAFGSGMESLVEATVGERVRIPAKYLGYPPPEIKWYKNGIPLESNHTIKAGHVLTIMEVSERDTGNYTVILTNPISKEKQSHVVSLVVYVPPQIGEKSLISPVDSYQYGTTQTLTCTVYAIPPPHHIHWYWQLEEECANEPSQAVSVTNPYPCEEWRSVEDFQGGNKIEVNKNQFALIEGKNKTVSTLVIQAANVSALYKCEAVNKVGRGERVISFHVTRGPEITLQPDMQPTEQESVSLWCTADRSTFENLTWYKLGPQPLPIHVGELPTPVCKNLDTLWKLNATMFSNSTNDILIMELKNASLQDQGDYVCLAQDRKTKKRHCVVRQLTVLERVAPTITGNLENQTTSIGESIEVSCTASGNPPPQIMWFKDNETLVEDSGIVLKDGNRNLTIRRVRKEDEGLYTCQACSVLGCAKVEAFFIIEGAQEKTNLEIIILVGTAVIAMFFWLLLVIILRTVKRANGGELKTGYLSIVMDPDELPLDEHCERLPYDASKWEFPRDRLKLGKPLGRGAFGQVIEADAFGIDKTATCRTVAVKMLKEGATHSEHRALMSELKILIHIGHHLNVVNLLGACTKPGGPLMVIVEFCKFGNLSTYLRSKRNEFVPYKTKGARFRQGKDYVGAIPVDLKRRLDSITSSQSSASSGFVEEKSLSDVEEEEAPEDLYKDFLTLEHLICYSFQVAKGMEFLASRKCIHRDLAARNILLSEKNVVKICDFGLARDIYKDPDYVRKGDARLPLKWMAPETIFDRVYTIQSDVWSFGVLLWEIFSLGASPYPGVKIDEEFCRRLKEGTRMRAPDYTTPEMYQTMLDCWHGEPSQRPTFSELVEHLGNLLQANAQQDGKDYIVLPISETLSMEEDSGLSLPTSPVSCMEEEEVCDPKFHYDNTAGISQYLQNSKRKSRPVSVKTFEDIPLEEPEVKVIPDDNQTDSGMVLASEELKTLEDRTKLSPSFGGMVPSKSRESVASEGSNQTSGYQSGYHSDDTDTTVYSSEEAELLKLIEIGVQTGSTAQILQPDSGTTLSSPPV

VEGFR [2] = conditions: read-out: IC50 (concentration required for efficacy); cited from earlier work
VEGFR2 [3] = target: T1, VEGFR2; conditions: HUVEC, in vitro angiogenic assays; read-out: IC50 VEGFR2 inhibition; cited from earlier work
[4] = test system: subretinal choroidal neovascularization (CNV); experiment: Subretinal choroidal neovascularization model after intravitreal injection (virtual example); format: in vivo, mammal (preferably a pigmented rabbit or a primate); conditions: intravitreal 50 uL, 10-20 mg/mL
Procedure: The first solution was then added to a saturated fatty acid (e.g. octanoic acid) combined with lecithin or lecithin derivatives (e.g. phosphatidyl choline), a glycerol fatty acid ester (e.g. propylene glycol fatty acid esters such as polyoxyethyleneglycerol triricinoleate), a sorbitan fatty acid ester (e.g. Span® 20, Span® 80) or a olyoxylethylene sorbitan fatty acid ester (e.g. Tween® 20, Tween® 80), and optionally a co-surfactant (e.g. propylene glycol, glycerol, PEG 400, 1,2-propanediol), which were then solubilized as a microemulsion using commercial lipoemulsion techniques (e.g. Intralipid®, Abbolipid). […] 50 uL of either Lucentis® or Eylea® was administered into the remaining eye of the mammal. 2 weeks after administration a subretinal choroidal neovascularization (CNV) was caused in the eyes of the mammal using techniques explained in Qui G et al., A new model of experimental subretinal neovascularization in the rabbit, Exp Eye Res, 2006 July, 83(1), 141-152. 6 weeks after subretinal CNV eyes of the mammal were sacrificed for examination.

VEGFR [5] = experiment: Virtual discovery: suppression of VEGFR; conditions: virtually discovered
[6] = test system: intraocular proliferative retinopathy; experiment: Virtual discovery: intravitreal injection, intraocular proliferative retinopathy; format: in vivo
Excerpt: With the onset of proliferative retinopathy however conventional anti-VEGF therapy causes increased fibrosis. Van Geest R. J. et al., A shift in the balance of vascular endothelial growth factor and connective tissue growth factor by bevacizumab causes the angiofibrotic switch in proliferative diabetic retinopathy Br J Ophthalmol, 2012 April, 96(4), 587-90. […]. The suppression of intraocular proliferative retinopathy in turn suppresses fibrotic induction and the most severe manifestations of proliferative eye disease. This suppression also is virtually discovered to occur when the methyl of the preferred embodiments is replaced by any alkyl group. […]. As diabetic macular edema is amenable to anti-VEGF therapy, its use in patients with preproliferative severe peripheral ischemic disease, and or patients with early proliferative disease may enhance the onset of fibrovascular proliferative morbidity, whereas the present invention using MTKIs combining VEGF suppression with c-MET suppression may both reduce diabetic macular edema and suppress diabetic fibrovascular proliferation.

[7] = Residence in the vitreous humor; format: in vivo; conditions: estimated for its molecular weight

For `Cn1cnc(-c2cc3nccc(Oc4ccc(NC(=S)NC(=O)Cc5ccccc5)cc4F)c3s2)c1` [MGCD-265], the IC50 (VEGFR2 [1]) is given as 3 nM.

For ranibizumab [Lucentis], the IC50 (VEGFR [2]) is listed as ~19 nM.

For bevacizumab [Avastin], the IC50 (VEGFR2 [3]) is listed as ~1.4 nM.

With `CCCCCCCCCCCCCCCC(=O)OC[n+]1ccc(Oc2ccc(NC(=O)C3(C(=O)Nc4ccc(F)cc4)CC3)cc2)c2cc(OC)c(OC)cc21` [Cabozantinib N-acyl methyl palmitate] the “suppression of macular edema” value [4] was “long-lasting suppression of macular edema”, the “suppression of fibrovascular proliferation” value ([4]; vs Lucentis or Eylea in the other eye, CNV 2 weeks after dosing, examined 6 weeks later) was “Greater suppression of fibrovascular proliferation” and the “suppression of VEGFR” value (VEGFR [5]) was “suppress”. The “suppression of intraocular proliferative retinopathy” value [6] was “suppress intraocular proliferative retinopathy”.

In the case of foretinib N-acyl methyl palmitate, the “suppression of intraocular proliferative retinopathy” value [6] is reported as “suppress intraocular proliferative retinopathy”.

In the case of `Cc1ccc(Nc2nccc(N(C)c3ccc4c(C)n(C)nc4c3)n2)cc1S(N)(=O)=O` [pazopantinib, Pazopantinib], the intravitreal clearance [7] is reported as “within hours”.
